#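 Grown in 96-well plates, cells were treated for 48 hours with each compound at five concentrations. Insufficient inhibition: endpoint recorded as highest concentration tested. Definition used: TGI = concentration required for complete inhibition of growth.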
# What was measured:
# Test in all cases: NCI-60 cell line screen, 48 h
# 786-0 renal = tested on: 786-0 renal
# NCI/ADR-RES ovarian = tested on: NCI/ADR-RES ovarian
# DU-145 prostate = tested on: DU-145 prostate
# HT29 colon = tested on: HT29 colon
# MDA-MB-231 breast = tested on: MDA-MB-231 breast
# SNB-19 CNS = tested on: SNB-19 CNS
# SN12C renal = tested on: SN12C renal
# MDA-MB-435 = tested on: MDA-MB-435
# NCI-H226 lung = tested on: NCI-H226 lung
# A498 renal = tested on: A498 renal
# HOP-62 NSCLC = tested on: HOP-62 NSCLC
# SK-MEL-28 melanoma = tested on: SK-MEL-28 melanoma
# UACC-257 melanoma = tested on: UACC-257 melanoma
# CCRF-CEM leukemia = tested on: CCRF-CEM leukemia
# OVCAR-5 ovarian = tested on: OVCAR-5 ovarian
# NCI-H460 lung = tested on: NCI-H460 lung
# K-562 leukemia = tested on: K-562 leukemia
# MDA-N = tested on: MDA-N
# BT-549 breast = tested on: BT-549 breast
# A549 NSCLC = tested on: A549 NSCLC
# EKVX NSCLC = tested on: EKVX NSCLC
# MOLT-4 leukemia = tested on: MOLT-4 leukemia
# M14 melanoma = tested on: M14 melanoma
# U251 CNS = tested on: U251 CNS
# OVCAR-8 ovarian = tested on: OVCAR-8 ovarian
# NCI-H23 lung = tested on: NCI-H23 lung
# COLO 205 colon = tested on: COLO 205 colon
# ACHN renal = tested on: ACHN renal
# SK-MEL-5 melanoma = tested on: SK-MEL-5 melanoma
# SF-268 CNS = tested on: SF-268 CNS
# RPMI-8226 leukemia = tested on: RPMI-8226 leukemia
# CAKI-1 renal = tested on: CAKI-1 renal
# PC-3 prostate = tested on: PC-3 prostate
# HL-60(TB) leukemia = tested on: HL-60(TB) leukemia
# TK-10 renal = tested on: TK-10 renal
# NCI-H522 lung = tested on: NCI-H522 lung
# HCT-15 colon = tested on: HCT-15 colon
# HS 578T breast = tested on: HS 578T breast
# SK-MEL-2 melanoma = tested on: SK-MEL-2 melanoma
# SF-295 CNS = tested on: SF-295 CNS
# LOX IMVI melanoma = tested on: LOX IMVI melanoma
# IGROV1 ovarian = tested on: IGROV1 ovarian
# SW-620 colon = tested on: SW-620 colon
# MALME-3M melanoma = tested on: MALME-3M melanoma
# UACC-62 melanoma = tested on: UACC-62 melanoma
# SF-539 CNS = tested on: SF-539 CNS
# RXF 393 renal = tested on: RXF 393 renal
# T-47D breast = tested on: T-47D breast
# HCT-116 colon = tested on: HCT-116 colon
# KM12 colon = tested on: KM12 colon
# MCF7 breast = tested on: MCF7 breast
# SK-OV-3 ovarian = tested on: SK-OV-3 ovarian
# SNB-75 CNS = tested on: SNB-75 CNS
# OVCAR-3 ovarian = tested on: OVCAR-3 ovarian
# OVCAR-4 ovarian = tested on: OVCAR-4 ovarian
# HCC-2998 colon = tested on: HCC-2998 colon
# UO-31 renal = tested on: UO-31 renal
smiles,measurement,setting,value
CCOC(=O)c1c(-c2ccccc2)c(OC)cn1C,TGI,786-0 renal,> 10 µM
same,TGI,NCI/ADR-RES ovarian,> 10 µM
same,TGI,DU-145 prostate,> 10 µM
same,TGI,HT29 colon,> 10 µM
same,TGI,MDA-MB-231 breast,> 10 µM
same,TGI,SNB-19 CNS,> 10 µM
same,TGI,SN12C renal,> 10 µM
same,TGI,MDA-MB-435,> 10 µM
same,TGI,NCI-H226 lung,> 10 µM
same,TGI,A498 renal,> 10 µM
same,TGI,HOP-62 NSCLC,> 10 µM
same,TGI,SK-MEL-28 melanoma,> 10 µM
same,TGI,UACC-257 melanoma,> 10 µM
same,TGI,CCRF-CEM leukemia,> 10 µM
same,TGI,OVCAR-5 ovarian,> 10 µM
same,TGI,NCI-H460 lung,> 10 µM
same,TGI,K-562 leukemia,> 10 µM
same,TGI,MDA-N,> 10 µM
same,TGI,BT-549 breast,> 10 µM
same,TGI,A549 NSCLC,> 10 µM
same,TGI,EKVX NSCLC,> 10 µM
same,TGI,MOLT-4 leukemia,> 10 µM
same,TGI,M14 melanoma,> 10 µM
same,TGI,U251 CNS,> 10 µM
same,TGI,OVCAR-8 ovarian,> 10 µM
same,TGI,NCI-H23 lung,> 10 µM
same,TGI,COLO 205 colon,> 10 µM
same,TGI,ACHN renal,> 10 µM
same,TGI,SK-MEL-5 melanoma,> 10 µM
same,TGI,SF-268 CNS,> 10 µM
same,TGI,RPMI-8226 leukemia,> 10 µM
same,TGI,CAKI-1 renal,> 10 µM
same,TGI,PC-3 prostate,> 10 µM
same,TGI,HL-60(TB) leukemia,> 10 µM
same,TGI,TK-10 renal,> 10 µM
same,TGI,NCI-H522 lung,> 10 µM
same,TGI,HCT-15 colon,> 10 µM
same,TGI,HS 578T breast,> 10 µM
same,TGI,SK-MEL-2 melanoma,> 10 µM
same,TGI,SF-295 CNS,> 10 µM
same,TGI,LOX IMVI melanoma,> 10 µM
same,TGI,IGROV1 ovarian,> 10 µM
same,TGI,SW-620 colon,> 10 µM
same,TGI,MALME-3M melanoma,> 10 µM
same,TGI,UACC-62 melanoma,> 10 µM
same,TGI,SF-539 CNS,> 10 µM
same,TGI,RXF 393 renal,> 10 µM
same,TGI,T-47D breast,> 10 µM
same,TGI,HCT-116 colon,> 10 µM
same,TGI,KM12 colon,> 10 µM
same,TGI,MCF7 breast,> 10 µM
same,TGI,SK-OV-3 ovarian,> 10 µM
same,TGI,SNB-75 CNS,> 10 µM
same,TGI,OVCAR-3 ovarian,> 10 µM
same,TGI,OVCAR-4 ovarian,> 10 µM
same,TGI,HCC-2998 colon,> 10 µM
CC/C=N\N1C(N)=C(C#N)C(C#N)(C#N)C1CC (configuration not stated),TGI,786-0 renal,> 100 µM
same,TGI,NCI/ADR-RES ovarian,> 100 µM
same,TGI,DU-145 prostate,> 100 µM
same,TGI,HT29 colon,86.4 µM
same,TGI,MDA-MB-231 breast,> 100 µM
same,TGI,SNB-19 CNS,> 100 µM
same,TGI,SN12C renal,> 100 µM
same,TGI,MDA-MB-435,> 100 µM
same,TGI,NCI-H226 lung,> 100 µM
same,TGI,A498 renal,> 100 µM
same,TGI,UO-31 renal,> 100 µM
same,TGI,HOP-62 NSCLC,> 100 µM
same,TGI,SK-MEL-28 melanoma,> 100 µM
same,TGI,UACC-257 melanoma,> 100 µM
same,TGI,CCRF-CEM leukemia,> 100 µM
same,TGI,OVCAR-5 ovarian,> 100 µM
same,TGI,K-562 leukemia,> 100 µM
same,TGI,MDA-N,> 100 µM
same,TGI,BT-549 breast,> 100 µM
same,TGI,A549 NSCLC,> 100 µM
same,TGI,EKVX NSCLC,> 100 µM
same,TGI,MOLT-4 leukemia,> 100 µM
same,TGI,M14 melanoma,> 100 µM
same,TGI,U251 CNS,> 100 µM
same,TGI,OVCAR-8 ovarian,> 100 µM
same,TGI,NCI-H23 lung,> 100 µM
same,TGI,COLO 205 colon,> 100 µM
same,TGI,ACHN renal,> 100 µM
same,TGI,SK-MEL-5 melanoma,> 100 µM
same,TGI,SF-268 CNS,> 100 µM
same,TGI,RPMI-8226 leukemia,> 100 µM
same,TGI,CAKI-1 renal,> 100 µM
same,TGI,PC-3 prostate,> 100 µM
same,TGI,HL-60(TB) leukemia,85.6 µM
same,TGI,TK-10 renal,> 100 µM
same,TGI,NCI-H522 lung,> 100 µM
same,TGI,HCT-15 colon,> 100 µM
same,TGI,HS 578T breast,> 100 µM
same,TGI,SK-MEL-2 melanoma,> 100 µM
same,TGI,SF-295 CNS,> 100 µM
same,TGI,LOX IMVI melanoma,> 100 µM
same,TGI,IGROV1 ovarian,> 100 µM
same,TGI,SW-620 colon,> 100 µM
same,TGI,MALME-3M melanoma,> 100 µM
same,TGI,UACC-62 melanoma,> 100 µM
same,TGI,SF-539 CNS,80.8 µM
same,TGI,RXF 393 renal,> 100 µM
same,TGI,T-47D breast,> 100 µM
same,TGI,HCT-116 colon,> 100 µM
same,TGI,KM12 colon,> 100 µM
same,TGI,MCF7 breast,> 100 µM
same,TGI,SK-OV-3 ovarian,> 100 µM
same,TGI,SNB-75 CNS,> 100 µM
same,TGI,OVCAR-3 ovarian,> 100 µM
same,TGI,OVCAR-4 ovarian,> 100 µM
same,TGI,HCC-2998 colon,> 100 µM
